# Test results published in patent publication US11472826B2, “Acyclic antivirals” (priority 2016, dated 2022).
# Tested on: VSV-G pseudotyped HIV NL4-3
# Experiment: microbe, parasite or virus in culture
# Assay type: cell-based
# Details: Human immunodeficiency virus 1, NL43, 72 h
row,SMILES,EC50 [nM]
1,"C[C@H](Cc1ccc2c(N)ncnn12)OCP(=O)(O)O [Compound 2, (R)-(((1-(4-aminopyrrolo[2,1-f][1,2,4]triazin-7-yl)propan-2-yl)oxy)methyl)phosphonic Acid]",20000 to 100000
2,"C[C@H](Cc1ncc2c(N)ncnn12)OCP(=O)(O)O [Compound 6, (R)-(((1-(4-aminoimidazo[5,1-f][1,2,4]triazin-7-yl)propan-2-yl)oxy)methyl)phosphonic Acid]",> 100000
3,"CC(Cc1cnn2c(N)ncnc12)OCP(=O)(O)O (stereo not drawn) [Compound 7, (1-(4-aminopyrazolo[1,5-a][1,3,5]triazin-8-yl)propan-2-yloxy)methylphosphonic Acid]",< 20000
4,"Nc1ncnc2c(CC(CF)OCP(=O)(O)O)cnn12 (stereo not drawn) [Compound 10, (1-(4-aminopyrazolo[1,5-a][1,3,5]triazin-8-yl)-3-fluoropropan-2-yloxy)methylphosphonic Acid]",< 20000
5,"C[C@H](Cc1cnc2c(N)ncnn12)OCP(=O)(O)O [Compound 5, (R)-(((1-(4-aminoimidazo[2,1-f][1,2,4]triazin-7-yl)propan-2-yl)oxy)methyl)phosphonic Acid]",< 20000
6,C[C@@H](Cc1cnn2c(N)ncnc12)OCP(=O)(O)O [Compound 30],< 20000
7,"C[C@H](Cc1nnc2c(N)ncnn12)OCP(=O)(O)O [Compound 4, (R)-(((1-(8-amino-[1,2,4]triazolo[3,4-f][1,2,4]triazin-3-yl)propan-2-yl)oxy)methyl)phosphonic Acid]",> 100000
8,"Nc1ncnn2c(COCCP(=O)(O)O)ccc12 [Compound 1, (2-((4-aminopyrrolo[2,1-f][1,2,4]triazin-7-yl)methoxy)ethyl)phosphonic Acid]",> 100000
9,CC(C)OC(=O)OCOP(=O)(CO[C@H](C)Cc1cnn2c(N)ncnc12)OCOC(=O)OC(C)C [Compound 13],< 20000
10,"Nc1ncnn2c(CCOCP(=O)(O)O)ccc12 [Compound 3, ((2-(4-aminopyrrolo[2,1-f][1,2,4]triazin-7-yl)ethoxy)methyl)phosphonic Acid]",> 100000
11,CC(C)OC(=O)OCOP(=O)(CO[C@@H](C)Cc1cnn2c(N)ncnc12)OCOC(=O)OC(C)C [Compound 14],< 20000
12,CC(C)OC(=O)OCOP(=O)(CO[C@H](C)Cc1ccc2c(N)ncnn12)OCOC(=O)OC(C)C [Compound 11],< 20000
13,C[C@H](Cc1cnn2c(N)ncnc12)OCP(=O)(O)O [Compound 29],20000 to 100000
14,CC(C)OC(=O)OCOP(=O)(CO[C@H](C)Cc1cnc2c(N)ncnn12)OCOC(=O)OC(C)C [Compound 12],< 20000

# Molecular target: Recombinant full length HIV-1 Reverse Transcriptase (HIVrt) (Human immunodeficiency virus type 1 group M subtype B (isolate HXB2) (HIV-1), UniProt P04585)
# Experiment: Inhibition of HIV reverse transcriptase (HIVrt RNA-dependent DNA polymerization assay)
# Assay type: biochemical
# Details: 1 nM HIVrt, c5′UTR RNA template, 30° C., 40 min; phosphono diphosphates tested
# Method: Recombinant full length HIV-1 Reverse Transcriptase (HIVrt) was purchased from Abcam, catalog #ab63979. The last 385 nucleotide region of the HCV anti-genome complementary to the 5′ untranslated region (c5′UTR) was synthesized using T7 RNA polymerase Megascript kit from Ambion (Cat #AM1333). A DNA oligo served as an internal initiation primer and was purchased from IDT. Unless otherwise specified, reaction samples consisted of 20 nM c5′UTR RNA, 100 nM DNA primer, and 1 nM HIVrt, mixed together in a buffer containing 50 mM Tris pH 7.5, 100 mM KCl, 4 mM dithiothreitol (DTT), and 12.5 mM MgCl2. Reactions were initiated at 30° C. by adding 0.1 μM adenosine triphosphate (dATP), 0.1 μM cytosine triphosphate (dCTP), 1 μM guanosine triphosphate (dGTP), and 0.32 μM ^3H-thymidine triphosphate (^3H-TTP), in a final volume of 50 μL. After 40-mins incubation, the reaction was terminated by adding 60 μl of chilled 20% (w/v) trichloroacetic acid with 500 μM ATP to precipitate nucleic acids. After incubation at 4° C. for 1 h, the sample underwent filtration on a multiscreen BV 1.2-μm 96-well plate (Millipore). 40 μL Microscint-20 (Perkin Elmer) was added to the well and the counts in the sample were determined by a Trilux Microbeta microplate scintillation reader (Wallac).
# All data were analyzed with GraphPad Prism. The compound concentration at which the enzyme-catalyzed rate was reduced by 50% (IC50) was calculated by fitting the data to the equation Y=% Min+(% Max−% Min)/(1+X/IC50), where Y corresponds to the percent relative enzyme activity, % Min is the residual relative activity at saturating compound concentration, % Max is the relative maximum enzyme activity, and X corresponds to the compound concentration. The Ki was calculated using the Cheng-Prusoff equation assuming competitive inhibition relative to natural dNTP incorporation: Ki=IC50/(1+[dNTP]/Km), where [dNTP] is the concentration of natural dNTP and Km is the apparent Km for dNTP. The standard HIVrt RNA-dependent DNA polymerization (RdDp) assay was used to determine the IC50 values.
row,SMILES,IC50 [nM]
1,CC(C)(Cc1cnn2c(=O)[nH]c(N)nc12)OCP(=O)(O)OP(=O)(O)OP(=O)(O)O [Compound 83],≥ 250
2,C[C@H](Cc1ncc2c(N)ncnn12)OCP(=O)(O)OP(=O)(O)OP(=O)(O)O [Compound 24],≥ 250
3,Nc1ncnc2c(C[C@@H](CF)OCP(=O)(O)OP(=O)(O)OP(=O)(O)O)cnn12 [Compound 58],< 50
4,CC(Cc1cnc2c(=O)[nH]c(N)nn12)OCP(=O)(O)OP(=O)(O)OP(=O)(O)O (stereo not drawn) [Compound 57],50 to 250
5,CC(Cc1ccc2c(=O)[nH]cnn12)OCP(=O)(O)OP(=O)(O)OP(=O)(O)O (stereo not drawn) [Compound 55],≥ 250
6,C[C@H](Cc1cnn2c(N)ncnc12)OCP(=O)(O)OP(=O)(O)OP(=O)(O)O [Compound 25],50 to 250
7,CC(Cc1ccc2c(N)nc(F)nn12)OCP(=O)(O)OP(=O)(O)OP(=O)(O)O (stereo not drawn) [Compound 27],< 50
8,Nc1ncnc2c(C[C@H](OCP(=O)(O)OP(=O)(O)OP(=O)(O)O)C(F)F)cnn12 [Compound 79],≥ 250
9,Nc1ncnn2c(C[C@@H](CF)OCP(=O)(O)OP(=O)(O)OP(=O)(O)O)cnc12 [Compound 80],50 to 250
10,C[C@H](Cc1ccc2c(N)ncnn12)OCP(=O)(O)OP(=O)(O)OP(=O)(O)O [Compound 21],< 50
11,Nc1ncnn2c(C[C@H](CF)OCP(=O)(O)OP(=O)(O)OP(=O)(O)O)cnc12 [Compound 82],50 to 250
12,Nc1ncnc2c(C[C@H](CF)OCP(=O)(O)OP(=O)(O)OP(=O)(O)O)cnn12 [Compound 59],< 50
13,C[C@@H](Cc1cnn2c(N)ncnc12)OCP(=O)(O)OP(=O)(O)OP(=O)(O)O [Compound 26],< 50
14,C[C@H](Cc1nnc2c(N)ncnn12)OCP(=O)(O)OP(=O)(O)OP(=O)(O)O [Compound 22],≥ 250
15,Nc1ncnn2c(CCOCP(=O)(O)OP(=O)(O)OP(=O)(O)O)ccc12 [Compound 20],< 50
16,Nc1ncnn2c(COCCP(=O)(O)OP(=O)(O)OP(=O)(O)O)ccc12 [Compound 19],≥ 250
17,Nc1ncnc2c(C[C@@H](OCP(=O)(O)OP(=O)(O)OP(=O)(O)O)C(F)F)cnn12 [Compound 81],50 to 250
18,CC(Cc1ccc2c(N)nc(N)nn12)OCP(=O)(O)OP(=O)(O)OP(=O)(O)O (stereo not drawn) [Compound 28],≥ 250
19,C[C@H](Cc1cnc2c(N)ncnn12)OCP(=O)(O)OP(=O)(O)OP(=O)(O)O [Compound 23],< 50
20,CC(Cc1ccc2c(=O)[nH]c(N)nn12)OCP(=O)(O)OP(=O)(O)OP(=O)(O)O (stereo not drawn) [Compound 56],< 50
21,Nc1ncnc2c(CC3(OCP(=O)(O)OP(=O)(O)OP(=O)(O)O)CC3)cnn12 [Compound 60],50 to 250

# Tested on: HBV
# Experiment: microbe, parasite or virus in culture
# Assay type: cell-based
# Details: HepG2.117 cells, 72 hours, HBV viral copy numbers in supernatant; read-out: EC50
row,SMILES,EC50 [nM]
1,"Nc1ncnc2c(C[C@H](OCP(=O)(O)O)C(F)F)cnn12 [Compound 65, (S) (((3-(4-aminoprazolo[1,5-a][1,3,5]triazin-8-yl)-1,1-difluoropropan-2-yl)oxy)methyl)phosphonic Acid]",1000 to 10000

# Same assay, conditions: Hepatitis B virus, HepG2.117, 72 h
row,SMILES,EC50 [nM]
1,CC(C)OC(=O)[C@H](C)NP(=O)(CO[C@@H](CF)Cc1cnn2c(N)ncnc12)Oc1ccccc1 (stereo partly drawn) [Compound 62],< 1000
2,CC(C)OC(=O)[C@H](C)NP(=O)(COC(C)Cc1cnc2c(=O)[nH]c(N)nn12)Oc1ccccc1 (stereo partly drawn) [Compound 61],< 1000
3,CC(C)OC(=O)[C@H](C)NP(=O)(CO[C@H](CF)Cc1cnn2c(N)ncnc12)Oc1ccccc1 (stereo partly drawn) [Compound 63],< 1000
4,CC(C)OC(=O)[C@H](C)NP(=O)(CO[C@H](C)Cc1cnn2c(N)ncnc12)Oc1ccccc1 (stereo partly drawn) [Compound 52],< 1000
5,CC(C)OC(=O)[C@H](C)NP(=O)(CO[C@H](C)Cc1cnc2c(N)ncnn12)Oc1ccccc1 (stereo partly drawn) [Compound 53],< 1000

# Same assay, conditions: Hepatitis B virus; HepG2.117 cells, 72 hours, HBV viral copy numbers in supernatant; read-out: EC50
row,SMILES,EC50 [nM]
1,"C[C@H](Cc1ccc2c(N)ncnn12)OCP(=O)(O)O [Compound 2, (R)-(((1-(4-aminopyrrolo[2,1-f][1,2,4]triazin-7-yl)propan-2-yl)oxy)methyl)phosphonic Acid]",10000 to 100000
2,"Nc1ncnn2c(C[C@H](CF)OCP(=O)(O)O)cnc12 [Compound 68, (R)-(((1-(4-aminoimidazo[2,1-f][1,2,4]triazin-7-yl)-3-fluoropropan-2-yl)oxy)methyl)phosphonic Acid]",< 1000
3,"Nc1ncnc2c(CC(CF)OCP(=O)(O)O)cnn12 (stereo not drawn) [Compound 10, (1-(4-aminopyrazolo[1,5-a][1,3,5]triazin-8-yl)-3-fluoropropan-2-yloxy)methylphosphonic Acid]",1000 to 10000
4,"Nc1ncnn2c(COCCP(=O)(O)O)ccc12 [Compound 1, (2-((4-aminopyrrolo[2,1-f][1,2,4]triazin-7-yl)methoxy)ethyl)phosphonic Acid]",< 1000
5,CC(C)OC(=O)OCOP(=O)(COC(C)Cc1ccc2c(N)nc(N)nn12)OCOC(=O)OC(C)C (stereo not drawn) [Compound 18],1000 to 10000
6,CC(C)OC(=O)OCOP(=O)(COCCc1ccc2c(N)ncnn12)OCOC(=O)OC(C)C [Compound 15],1000 to 10000
7,"CC(Cc1cnc2c(=O)[nH]c(N)nn12)OCP(=O)(O)O (stereo not drawn) [Compound 48, (((1-(2-amino-4-oxo-3,4-dihydroimidazo[2,1-f][1,2,4]triazin-7-yl)propan-2-yl)oxy)methyl)phosphonic Acid]",< 1000
8,"Nc1ncnn2c(C[C@@H](CF)OCP(=O)(O)O)cnc12 [Compound 67, (S)-(((1-(4-aminoimidazo[2,1-f][1,2,4]triazin-7-yl)-3-fluoropropan-2-yl)oxy)methyl) phosphonic Acid]",10000 to 100000
9,"Nc1ncnc2c(C[C@@H](OCP(=O)(O)O)C(F)F)cnn12 [Compound 66, (R)-(((3-(4-aminopyrazolo[1,5-a][1,3,5]triazin-8-yl)-1,1-difluoropropan-2-yl)oxy)methyl)phosphonic Acid]",1000 to 10000
10,CC(C)OC(=O)OCOP(=O)(COC(C)Cc1ccc2c(=O)[nH]c(N)nn12)OCOC(=O)OC(C)C (stereo not drawn) [Compound 51],< 1000
11,CC(C)OC(=O)OCOP(=O)(CO[C@H](C)Cc1cnn2c(N)ncnc12)OCOC(=O)OC(C)C [Compound 13],> 100000
12,CC(C)OC(=O)OCOP(=O)(CO[C@@H](C)Cc1cnn2c(N)ncnc12)OCOC(=O)OC(C)C [Compound 14],< 1000
13,"Nc1ncnc2c(CC3(OCP(=O)(O)O)CC3)cnn12 [Compound 64, ((1-((4-aminopyrazolo[1,5-a][1,3,5]triazin-8-yl)methyl)cyclopropoxy)methyl) phosphonic Acid]",10000 to 100000
14,CC(C)OC(=O)OCOP(=O)(COC(CF)Cc1cnn2c(N)ncnc12)OCOC(=O)OC(C)C (stereo not drawn) [Compound 16],< 1000
15,CC(C)OC(=O)OCOP(=O)(CO[C@H](C)Cc1ccc2c(N)ncnn12)OCOC(=O)OC(C)C [Compound 11],< 1000
16,CC(C)OC(=O)OCOP(=O)(CO[C@H](C)Cc1cnc2c(N)ncnn12)OCOC(=O)OC(C)C [Compound 12],< 1000
